Measured values from article PMC5975062 (Alzheimer's & Dementia : Translational Research & Clinical …, 2015).
Marks after values point to notes of the source that are not given here.

Assay: Safety and tolerability
Format: in vivo, human
[1] = 20 mg bid 11 d solution, fasted, nonelderly
[2] = 50 mg bid 11 d solution, fasted, nonelderly
[3] = 100 mg bid 11 d solution, fed, nonelderly
[4] = 200 mg bid 7 d capsule, fasted, elderly
[5] = 200 mg bid 11 d solution, fasted, nonelderly
[6] = 300 mg bid 7 d capsule, fasted, elderly
[7] = 400 mg bid 11 d capsule, fasted, nonelderly
[8] = 500 mg bid 11 d capsule, fed, nonelderly
[9] = 500 mg bid 11 d tablet, fasted, elderly
[10] = 800 mg bid 11 d tablet, fasted, elderly

Structure (SMILES): CCCOc1ccc([C@H]2CNC(=O)N2c2ccc3[nH]cnc3c2)cc1 [PQ912]
- Abdominal pain, number of TEAEs [1]: 1 [1]
- Abdominal pain, number of subjects [1]: 1 [1]
- Headache, number of TEAEs [1]: 7
- Headache, number of subjects [1]: 3
- Neck pain, number of TEAEs [1]: 1 [1]
- Neck pain, number of subjects [1]: 1 [1]
- Number of AEs [1]: 16
- Subjects with AEs, number [1]: 7
- Subjects with AEs, percentage of total subjects [1]: 87.5%
- Abdominal pain, number of TEAEs [2]: 1 [1]
- Abdominal pain, number of subjects [2]: 1 [1]
- Chest pain, number of TEAEs [2]: 1 [1]
- Chest pain, number of subjects [2]: 1 [1]
- Dizziness, number of TEAEs [2]: 1 [1]
- Dizziness, number of subjects [2]: 1 [1]
- Headache, number of TEAEs [2]: 8
- Headache, number of subjects [2]: 4
- Injection site pain, number of TEAEs [2]: 6
- Injection site pain, number of subjects [2]: 5
- Nausea, number of TEAEs [2]: 1 [1]
- Nausea, number of subjects [2]: 1 [1]
- Number of AEs [2]: 22
- Subjects with AEs, number [2]: 7
- Subjects with AEs, percentage of total subjects [2]: 87.5%
- Back pain, number of TEAEs [3]: 1 [1]
- Back pain, number of subjects [3]: 1 [1]
- Chest pain, number of TEAEs [3]: 1 [1]
- Chest pain, number of subjects [3]: 1 [1]
- Headache, number of TEAEs [3]: 4
- Headache, number of subjects [3]: 3
- Injection site pain, number of TEAEs [3]: 3 [3]
- Injection site pain, number of subjects [3]: 3 [3]
- Number of AEs [3]: 16
- Presyncope, number of TEAEs [3]: 6 [6]
- Presyncope, number of subjects [3]: 6 [6]
- Subjects with AEs, number [3]: 8
- Subjects with AEs, percentage of total subjects [3]: 100.0%
- Number of AEs [4]: 3
- Subjects with AEs, number [4]: 3
- Subjects with AEs, percentage of total subjects [4]: 50.0%
- Abdominal pain, number of TEAEs [5]: 1 [1]
- Abdominal pain, number of subjects [5]: 1 [1]
- Back pain, number of TEAEs [5]: 1 [1]
- Back pain, number of subjects [5]: 1 [1]
- Chest pain, number of TEAEs [5]: 1 [1]
- Chest pain, number of subjects [5]: 1 [1]
- Diarrhea, number of TEAEs [5]: 1 [1]
- Diarrhea, number of subjects [5]: 1 [1]
- Flatulence, number of TEAEs [5]: 1 [1]
- Flatulence, number of subjects [5]: 1 [1]
- Nausea, number of TEAEs [5]: 1 [1]
- Nausea, number of subjects [5]: 1 [1]
- Neck pain, number of TEAEs [5]: 1 [1]
- Neck pain, number of subjects [5]: 1 [1]
- Number of AEs [5]: 11
- Subjects with AEs, number [5]: 6
- Subjects with AEs, percentage of total subjects [5]: 75.0%
- Back pain, number of TEAEs [6]: 1 [1]
- Back pain, number of subjects [6]: 1 [1]
- Headache, number of TEAEs [6]: 4 [4]
- Headache, number of subjects [6]: 4 [4]
- Injection site pain, number of TEAEs [6]: 4 [4]
- Injection site pain, number of subjects [6]: 4 [4]
- Number of AEs [6]: 13
- Pain in extremity, number of TEAEs [6]: 2
- Pain in extremity, number of subjects [6]: 1
- Subjects with AEs, number [6]: 6
- Subjects with AEs, percentage of total subjects [6]: 75.0%
- Abdominal pain, number of TEAEs [7]: 1 [1]
- Abdominal pain, number of subjects [7]: 1 [1]
- Back pain, number of TEAEs [7]: 1 [1]
- Back pain, number of subjects [7]: 1 [1]
- Headache, number of TEAEs [7]: 4
- Headache, number of subjects [7]: 3
- Number of AEs [7]: 9
- Presyncope, number of TEAEs [7]: 1 [1]
- Presyncope, number of subjects [7]: 1 [1]
- Subjects with AEs, number [7]: 5
- Subjects with AEs, percentage of total subjects [7]: 62.5%
- Abdominal pain, number of TEAEs [8]: 1 [1]
- Abdominal pain, number of subjects [8]: 1 [1]
- Abnormal sensation in eye, number of TEAEs [8]: 2 [2]
- Abnormal sensation in eye, number of subjects [8]: 2 [2]
- Back pain, number of TEAEs [8]: 5
- Back pain, number of subjects [8]: 4
- Diarrhea, number of TEAEs [8]: 1 [1]
- Diarrhea, number of subjects [8]: 1 [1]
- Dizziness, number of TEAEs [8]: 2 [2]
- Dizziness, number of subjects [8]: 2 [2]
- Headache, number of TEAEs [8]: 3 [3]
- Headache, number of subjects [8]: 3 [3]
- Nausea, number of TEAEs [8]: 1 [1]
- Nausea, number of subjects [8]: 1 [1]
- Number of AEs [8]: 30 ^‡
- Pain in extremity, number of TEAEs [8]: 2 [2]
- Pain in extremity, number of subjects [8]: 2 [2]
- Subjects with AEs, number [8]: 8
- Subjects with AEs, percentage of total subjects [8]: 100.0%
- Abdominal pain, number of TEAEs [9]: 1 [1]
- Abdominal pain, number of subjects [9]: 1 [1]
- Back pain, number of TEAEs [9]: 1 [1]
- Back pain, number of subjects [9]: 1 [1]
- Constipation, number of TEAEs [9]: 2 [2]
- Constipation, number of subjects [9]: 2 [2]
- Contusion, number of TEAEs [9]: 3
- Contusion, number of subjects [9]: 2
- Diarrhea, number of TEAEs [9]: 1 [1]
- Diarrhea, number of subjects [9]: 1 [1]
- Dizziness, number of TEAEs [9]: 2
- Dizziness, number of subjects [9]: 1
- Headache, number of TEAEs [9]: 4
- Headache, number of subjects [9]: 2
- Injection site pain, number of TEAEs [9]: 1 [1]
- Injection site pain, number of subjects [9]: 1 [1]
- Nausea, number of TEAEs [9]: 4
- Nausea, number of subjects [9]: 3
- Number of AEs [9]: 32
- Subjects with AEs, number [9]: 9
- Subjects with AEs, percentage of total subjects [9]: 75.0%
- Chest pain, number of TEAEs [10]: 2
- Chest pain, number of subjects [10]: 1
- Constipation, number of TEAEs [10]: 2 [2]
- Constipation, number of subjects [10]: 2 [2]
- Contusion, number of TEAEs [10]: 1 [1]
- Contusion, number of subjects [10]: 1 [1]
- Diarrhea, number of TEAEs [10]: 1 [1]
- Diarrhea, number of subjects [10]: 1 [1]
- Flatulence, number of TEAEs [10]: 3 [3]
- Flatulence, number of subjects [10]: 3 [3]
- Headache, number of TEAEs [10]: 2 [2]
- Headache, number of subjects [10]: 2 [2]
- Nausea, number of TEAEs [10]: 2 [2]
- Nausea, number of subjects [10]: 2 [2]
- Neck pain, number of TEAEs [10]: 1 [1]
- Neck pain, number of subjects [10]: 1 [1]
- Number of AEs [10]: 34
- Pollakiuria, number of TEAEs [10]: 2 [2]
- Pollakiuria, number of subjects [10]: 2 [2]
- Subjects with AEs, number [10]: 6
- Subjects with AEs, percentage of total subjects [10]: 100%
- subjects withdrawn because of a TEAE (urticaria papular) (500-mg bid, 11 days, capsule, fed, about 3.5 hours after the 18th dose): One subject
- drug-related TEAEs, events (after multiple doses, 102 subjects (PQ912 or placebo)): 113
- subjects reporting drug-related TEAEs (after multiple doses, of 102 subjects (PQ912 or placebo)): 47
- drug-related TEAEs, events (after single doses, 104 subjects (PQ912 or placebo)): 25
- subjects reporting drug-related TEAEs (after single doses, of 104 subjects (PQ912 or placebo)): 16
- subjects with clinically significant changes in clinical laboratory parameters (increases in serum potassium, erythrocytes, leukocytes): four subjects
- Back pain, number of TEAEs (single 30 mg solution, fasted): 1 [1]
- Back pain, number of subjects (single 30 mg solution, fasted): 1 [1]
- Number of AEs (single 30 mg solution, fasted): 2
- Subjects with AEs, number (single 30 mg solution, fasted): 2
- Subjects with AEs, percentage of total subjects (single 30 mg solution, fasted): 33.3%
- Back pain, number of TEAEs (single 50 mg solution, fasted): 1 [1]
- Back pain, number of subjects (single 50 mg solution, fasted): 1 [1]
- Fatigue, number of TEAEs (single 50 mg solution, fasted): 1 [1]
- Fatigue, number of subjects (single 50 mg solution, fasted): 1 [1]
- Headache, number of TEAEs (single 50 mg solution, fasted): 3
- Headache, number of subjects (single 50 mg solution, fasted): 2
- Injection site pain, number of TEAEs (single 50 mg solution, fasted): 1 [1]
- Injection site pain, number of subjects (single 50 mg solution, fasted): 1 [1]
- Nausea, number of TEAEs (single 50 mg solution, fasted): 1 [1]
- Nausea, number of subjects (single 50 mg solution, fasted): 1 [1]
- Number of AEs (single 50 mg solution, fasted): 11
- Subjects with AEs, number (single 50 mg solution, fasted): 5
- Subjects with AEs, percentage of total subjects (single 50 mg solution, fasted): 83.3%
- Vomiting, number of TEAEs (single 50 mg solution, fasted): 2
- Vomiting, number of subjects (single 50 mg solution, fasted): 1
- Back pain, number of TEAEs (single 100 mg solution, fasted): 3 [3]
- Back pain, number of subjects (single 100 mg solution, fasted): 3 [3]
- Fatigue, number of TEAEs (single 100 mg solution, fasted): 1 [1]
- Fatigue, number of subjects (single 100 mg solution, fasted): 1 [1]
- Number of AEs (single 100 mg solution, fasted): 7
- Subjects with AEs, number (single 100 mg solution, fasted): 3
- Subjects with AEs, percentage of total subjects (single 100 mg solution, fasted): 37.5%
- Back pain, number of TEAEs (single 400 mg solution, fasted): 2 [2]
- Back pain, number of subjects (single 400 mg solution, fasted): 2 [2]
- Headache, number of TEAEs (single 400 mg solution, fasted): 1 [1]
- Headache, number of subjects (single 400 mg solution, fasted): 1 [1]
- Injection site pain, number of TEAEs (single 400 mg solution, fasted): 1 [1]
- Injection site pain, number of subjects (single 400 mg solution, fasted): 1 [1]
- Number of AEs (single 400 mg solution, fasted): 7
- Presyncope, number of TEAEs (single 400 mg solution, fasted): 1 [1]
- Presyncope, number of subjects (single 400 mg solution, fasted): 1 [1]
- Subjects with AEs, number (single 400 mg solution, fasted): 4
- Subjects with AEs, percentage of total subjects (single 400 mg solution, fasted): 33.3%
- Nausea, number of TEAEs (single 800 mg capsule, fasted): 1 [1]
- Nausea, number of subjects (single 800 mg capsule, fasted): 1 [1]
- Number of AEs (single 800 mg capsule, fasted): 2
- Subjects with AEs, number (single 800 mg capsule, fasted): 1
- Subjects with AEs, percentage of total subjects (single 800 mg capsule, fasted): 16.7%
- Vomiting, number of TEAEs (single 800 mg capsule, fasted): 1 [1]
- Vomiting, number of subjects (single 800 mg capsule, fasted): 1 [1]
- Headache, number of TEAEs (single 1200 mg capsule, fed): 1 [1]
- Headache, number of subjects (single 1200 mg capsule, fed): 1 [1]
- Number of AEs (single 1200 mg capsule, fed): 2
- Subjects with AEs, number (single 1200 mg capsule, fed): 1
- Subjects with AEs, percentage of total subjects (single 1200 mg capsule, fed): 16.7%
- Nausea, number of TEAEs (single 1800 mg tablet, fasted): 2 [2]
- Nausea, number of subjects (single 1800 mg tablet, fasted): 2 [2]
- Number of AEs (single 1800 mg tablet, fasted): 2
- Subjects with AEs, number (single 1800 mg tablet, fasted): 2
- Subjects with AEs, percentage of total subjects (single 1800 mg tablet, fasted): 33.3%
- overall safety and tolerability (single doses up to 3600 mg, bid doses up to 800 mg): safe and well tolerated
- serious adverse events (whole study): no serious adverse events
- vital signs, 12-lead ECGs, telemetry, physical examinations (whole study): no clinically significant findings
